Reference: patent US8552013B2, “Heterocyclic compounds based on N6-substituted adenine, methods of their preparation, their use for preparation of drugs, cosmetic preparations and growth regulators, pharmaceutical preparations, cosmetic preparations and growth regulators containing these compounds” (USTAV Experimentalni Botaniky Akademie Ved Ceske Republiky, priority 2001, dated 2013)
Values joined by “and” are separate entries in the source; they are usually repeats but may differ in a detail not shown here. Equal values may be shown once. Read-outs that look alike come from different tables or passages of the source.

Legend:
K-562 = assay: Calcein AM cytotoxicity, K-562; type: cell-based; settings: read-out: IC 50, K-562
Summary of the method: (§1)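 Cells in DMEM with 10% FCS, pre-incubated 24 h, then exposed to six 4-fold compound dilutions in duplicate for 72 h at 37 °C, 5% CO2. Viability read by Calcein AM fluorescence after 1 h further incubation.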

[1] = test system: breast carcinoma cell line MCF-7; assay: Calcein AM cytotoxicity, MCF7; type: cell-based, human; settings: read-out: IC 50, MCF7
Summary of the method: as §1

G-361 = assay: Calcein AM cytotoxicity, G-361; type: cell-based; settings: read-out: IC 50, G-361
[2] = test system: T-lymphoblastic leukemia cell line CEM; assay: Calcein AM cytotoxicity, CEM; type: cell-based, human
Summary of the method: as §1

[3] = test system: promyelocytic HL-60 leukemia; assay: Calcein AM cytotoxicity, HL60; type: cell-based, human; settings: read-out: IC 50, HL60
Summary of the method: as §1

[4] = test system: human diploid fibroblasts (HCA cells); assay: Senescence, beta-galactosidase staining of human diploid fibroblasts; type: cell-based; settings: for SENESCENT CELLS (%) HCA25: passage 25; for SENESCENT CELLS (%) HCA45: passage 45; for SENESCENT CELLS (%) HCA80: passage 80
Summary of the method: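 HCA fibroblasts at passages 25, 45 and 80 were fixed for 5 min at room temperature in 2% formaldehyde/0.2% glutaraldehyde. They were then incubated at 37 °C without CO2 for 1 to 16 hours with X-gal 1 mg/ml, 5 mM ferri- and ferrocyanide and 2 mM MgCl2 in citric/phosphate buffer, pH 6.0. Blue-stained cells were scored.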

B16-F0 melanoma = assay: Calcein AM cytotoxicity, B16-F0; type: cell-based; settings: Mus musculus, B16F0, 72 h, read-out: IC 50, B16-F0
Summary of the method: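 Cells pre-incubated 24 hours, then exposed for 72 hours at 37° C. to six 4-fold compound dilutions in duplicate, top well concentration usually 266.7 μM. Viability read by Calcein AM fluorescence after 1 hour; GI50 taken from dose-response curves of survival relative to control wells.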

Compound | SENESCENT CELLS (%) HCA25 [4] [%] | SENESCENT CELLS (%) HCA45 [4] [%] | SENESCENT CELLS (%) HCA80 [4] [%] | IC50 (K-562; Homo sapiens, K562, 72 h) [µM] | IC50 ([1]; Homo sapiens, MCF7, 72 h) [µM] | IC50 (G-361; Homo sapiens, G-361, 72 hours) [µM] | IC50 ([2]; Homo sapiens, 72 h) [µM] | IC50 ([3]; Homo sapiens, HL-60, 72 h) [µM] | IC50 (B16-F0 melanoma) [µM] | also measured
Fc1ccccc1CNc1ncnc2nc[nH]c12 [6-(2-fluorobenzylamino)purine] | 4 | 3 | 16 |  |  |  |  |  |  | IC50 (K-562; 72 hours): 136 µM and 70.7 µM; IC50 ([1]; 72 hours, listed as 2F BAP): 109 µM and 128 µM; IC50 (G-361; 72 hours): 106 µM; IC50 ([2]; 72 hours, listed as 2F BAP): 136 µM and 98.9 µM; IC50 ([3]; 72 hours, listed as 2F BAP): > 167 µM
Cc1ccccc1CNc1ncnc2nc[nH]c12 [6-(2-methylbenzylamino)purine] |  |  |  | 157 | > 167 | > 167 | > 167 | > 167 |  | 
Fc1cccc(CNc2ncnc3nc[nH]c23)c1 [6-(3-fluorobenzylamino)purine] | 3 | 3 | 15 |  |  |  |  |  |  | 
Ic1cccc(CNc2ncnc3nc[nH]c23)c1 [6-(3-iodobenzylamino)purine] |  |  |  | 94.7 | 130 | > 167 | 125 | 133 |  | 
COc1cccc(CNc2ncnc3nc[nH]c23)c1 [6-(3-methoxybenzylamino)purine] |  |  |  |  |  |  |  |  | 41.5 | IC50 ([1]; 72 hours, listed as 3MeO BAP): 150 µM
Cc1ccc(CNc2ncnc3nc[nH]c23)cc1 [6-(4-methylbenzylamino)purine] |  |  |  | 72.8 | 82.8 | 160 | 72.1 | 88 |  | 
Oc1cccc(CNc2ncnc3nc[nH]c23)c1 [meta-topolin, 6-(3-hydroxybenzylamino)purine] | 5 | 3 | 22 |  |  |  |  |  | 90.6 | IC50 (K-562; 72 hours, listed as MT): 140 µM
Oc1ccccc1CNc1ncnc2nc[nH]c12 [ortho-topolin, 6-(2-hydroxybenzylamino)purine] | 3 | 4 | 17 |  |  |  |  |  | 150 | 
